Experiments:
Assay in all cases: relative viability (nuclei count vs DMSO), 5 days (fraction); higher = more cells survive
[1] = compound: CCC1=CN=CN=C1N2CCN(CC2)CC3=NC4=C(N3)C=C(C=C4)C(F)(F)F + NC(=O)Nc1cc(-c2cccc(F)c2)sc1C(=O)N[C@H]1CCCNC1 [AZD7762] (partner 0.2 µM)
Procedure, shortened: (§1)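 Nuclei were stained with Hoechst during a one-step fixation (final 0.05% Triton X-100, 1% formaldehyde, 1 ug/ml Hoechst) carried out 5 days after dosing, then counted on 4× images. The cells, lung cancer lines in 1536-well plates, had been dosed by pin tool the day after seeding with one drug alone or a fixed anchor-drug dose plus five library-drug doses (not always all listed) in √10 steps. Relative viability is the nuclei count in treated wells divided by that in vehicle wells, and each value is the median of duplicate plates.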

[2] = compound: CCC1=CN=CN=C1N2CCN(CC2)CC3=NC4=C(N3)C=C(C=C4)C(F)(F)F + C[C@@H](Oc1cc(-c2cnn(C3CCNCC3)c2)cnc1N)c1c(Cl)ccc(F)c1Cl [Crizotinib] (partner 1 µM)
Procedure, shortened: as §1

[3] = compound: CCn1c(-c2nonc2N)nc2cnc(Oc3cccc(NC(=O)c4ccc(OCCN5CCOCC5)cc4)c3)cc21 + CS(=O)(=O)CCNCc1ccc(-c2ccc3ncnc(Nc4ccc(OCc5cccc(F)c5)c(Cl)c4)c3c2)o1 [Lapatinib] (partner 2 µM)
Procedure, shortened: as §1

[4] = compound: CCC1=CN=CN=C1N2CCN(CC2)CC3=NC4=C(N3)C=C(C=C4)C(F)(F)F + CCNC(=O)c1noc(-c2cc(C(C)C)c(O)cc2O)c1-c1ccc(CN2CCOCC2)cc1 [Luminespib] (partner 0.01 µM)
Procedure, shortened: as §1

NCI-H1755
relative viability ([1]; first compound 0.04 µM): 0.579
relative viability ([1]; first compound 0.1265 µM): 0.528
relative viability ([1]; first compound 0.4 µM): 0.434
relative viability ([1]; first compound 1.265 µM): 0.395
relative viability ([1]; first compound 4 µM): 0.602
relative viability ([2]; first compound 0.04 µM): 0.963
relative viability ([2]; first compound 0.1265 µM): 0.809
relative viability ([2]; first compound 0.4 µM): 0.948
relative viability ([2]; first compound 1.265 µM): 0.89
relative viability ([2]; first compound 4 µM): 1.06
relative viability ([3]; first compound 0.04 µM): 1.11
relative viability ([3]; first compound 0.1265 µM): 0.928
relative viability ([3]; first compound 0.4 µM): 0.713
relative viability ([3]; first compound 1.265 µM): 0.641
relative viability ([3]; first compound 4 µM): 0.6
relative viability ([4]; first compound 0.04 µM): 0.458
relative viability ([4]; first compound 0.1265 µM): 0.483
relative viability ([4]; first compound 0.4 µM): 0.311
relative viability ([4]; first compound 1.265 µM): 0.338
relative viability ([4]; first compound 4 µM): 0.308

NCI-H358
relative viability ([1]; first compound 0.04 µM): 0.614
relative viability ([1]; first compound 0.1265 µM): 0.436
relative viability ([1]; first compound 0.4 µM): 0.453
relative viability ([1]; first compound 1.265 µM): 0.51
relative viability ([1]; first compound 4 µM): 0.485
relative viability ([2]; first compound 0.04 µM): 0.581
relative viability ([2]; first compound 0.1265 µM): 0.73
relative viability ([2]; first compound 0.4 µM): 0.92
relative viability ([2]; first compound 1.265 µM): 1.15
relative viability ([2]; first compound 4 µM): 1.68
relative viability ([3]; first compound 0.04 µM): 0.474
relative viability ([3]; first compound 0.1265 µM): 0.479
relative viability ([3]; first compound 0.4 µM): 0.29
relative viability ([3]; first compound 1.265 µM): 0.525
relative viability ([3]; first compound 4 µM): 0.316
relative viability ([4]; first compound 0.04 µM): 0.288
relative viability ([4]; first compound 0.1265 µM): 0.263
relative viability ([4]; first compound 0.4 µM): 0.339
relative viability ([4]; first compound 4 µM): 0.194

NCI-H1734
relative viability ([1]; first compound 0.04 µM): 0.619
relative viability ([1]; first compound 0.1265 µM): 0.626
relative viability ([1]; first compound 0.4 µM): 0.562
relative viability ([1]; first compound 1.265 µM): 0.564
relative viability ([1]; first compound 4 µM): 0.782
relative viability ([2]; first compound 0.04 µM): 0.655
relative viability ([2]; first compound 0.1265 µM): 0.679
relative viability ([2]; first compound 0.4 µM): 0.751
relative viability ([2]; first compound 4 µM): 1.12
relative viability ([3]; first compound 0.04 µM): 1.03
relative viability ([3]; first compound 0.1265 µM): 0.93
relative viability ([3]; first compound 0.4 µM): 0.6
relative viability ([3]; first compound 1.265 µM): 0.38
relative viability ([3]; first compound 4 µM): 0.403
relative viability ([4]; first compound 0.04 µM): 0.213
relative viability ([4]; first compound 0.1265 µM): 0.196
relative viability ([4]; first compound 0.4 µM): 0.173
relative viability ([4]; first compound 1.265 µM): 0.207
relative viability ([4]; first compound 4 µM): 0.185

EPLC-272H
relative viability ([1]; first compound 0.04 µM): 0.172
relative viability ([1]; first compound 0.1265 µM): 0.209
relative viability ([1]; first compound 0.4 µM): 0.207
relative viability ([1]; first compound 1.265 µM): 0.245
relative viability ([1]; first compound 4 µM): 0.262
relative viability ([2]; first compound 0.04 µM): 0.81
relative viability ([2]; first compound 0.1265 µM): 0.867
relative viability ([2]; first compound 0.4 µM): 0.89
relative viability ([2]; first compound 1.265 µM): 0.959
relative viability ([2]; first compound 4 µM): 1.19
relative viability ([3]; first compound 0.04 µM): 1.46
relative viability ([3]; first compound 0.1265 µM): 0.903
relative viability ([3]; first compound 0.4 µM): 0.796
relative viability ([3]; first compound 1.265 µM): 0.187
relative viability ([3]; first compound 4 µM): 0.827
relative viability ([4]; first compound 0.04 µM): 0.24
relative viability ([4]; first compound 0.1265 µM): 0.344
relative viability ([4]; first compound 0.4 µM): 0.21
relative viability ([4]; first compound 1.265 µM): 0.25
relative viability ([4]; first compound 4 µM): 0.3
